Experimental data as given in patent publication US20260335323A1, “CHIMERIC MOLECULE” (UCL Business Ltd, priority 2023, published 2026).

Biological target: T1, ULK1 (Homo sapiens, UniProt O75385)
T1 sequence (O75385 1-1050): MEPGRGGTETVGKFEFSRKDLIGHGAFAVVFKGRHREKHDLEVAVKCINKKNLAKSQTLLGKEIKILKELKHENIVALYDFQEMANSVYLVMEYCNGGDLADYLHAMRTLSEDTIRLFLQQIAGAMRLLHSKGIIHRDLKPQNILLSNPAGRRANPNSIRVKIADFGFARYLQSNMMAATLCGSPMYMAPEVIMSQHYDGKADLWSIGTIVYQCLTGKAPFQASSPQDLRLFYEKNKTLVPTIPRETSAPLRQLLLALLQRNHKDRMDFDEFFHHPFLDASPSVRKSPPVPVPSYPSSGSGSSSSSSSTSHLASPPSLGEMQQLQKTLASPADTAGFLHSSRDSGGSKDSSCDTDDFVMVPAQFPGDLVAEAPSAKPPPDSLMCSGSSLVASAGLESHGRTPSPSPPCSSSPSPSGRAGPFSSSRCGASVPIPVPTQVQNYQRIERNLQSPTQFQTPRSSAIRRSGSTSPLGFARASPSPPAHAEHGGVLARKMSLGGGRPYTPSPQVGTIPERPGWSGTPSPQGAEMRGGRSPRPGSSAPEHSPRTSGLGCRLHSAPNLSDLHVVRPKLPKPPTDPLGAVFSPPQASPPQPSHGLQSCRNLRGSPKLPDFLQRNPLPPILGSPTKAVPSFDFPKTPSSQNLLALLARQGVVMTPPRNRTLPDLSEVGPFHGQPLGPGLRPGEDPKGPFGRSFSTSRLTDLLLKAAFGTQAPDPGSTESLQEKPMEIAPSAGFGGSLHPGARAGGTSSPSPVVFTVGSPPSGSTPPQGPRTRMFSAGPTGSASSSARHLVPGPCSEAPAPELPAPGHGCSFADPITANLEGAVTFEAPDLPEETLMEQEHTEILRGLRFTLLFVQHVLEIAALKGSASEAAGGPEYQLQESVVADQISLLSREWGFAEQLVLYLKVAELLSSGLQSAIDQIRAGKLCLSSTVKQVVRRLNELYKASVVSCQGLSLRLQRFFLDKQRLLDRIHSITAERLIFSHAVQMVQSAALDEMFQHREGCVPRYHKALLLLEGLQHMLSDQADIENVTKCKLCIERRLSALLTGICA
Experiment: Western blot, phosphorylation of ULK1 at Ser317 in PANC-1 cells
Format: cell-based
Design: pSer317 blot or TOM20 co-localisation
Excerpt: FIG. 2. BL-918 is a potent ULK1 agonist and autophagy inducer (A) Representative images of PANC-1 cells stably expressing the mCherry-EGFP-LC3 tandem reporter treated with ULK1 agonists. Nuclei stained with Hoechst 33342, autophagosomes are shown in the EGFP channel and autolysosomes in the mCherry channel. Fold change in the number of autophagosomes (B) and autolysosomes (C) puncta in ULK1 agonist treated cells. (D) Western blot of PANC-1 cells treated with DMSO, bafilomycin and ULK1 agonists±bafilomycin; probed for p-ULK1 (S317), ULK1, p62, b-actin, LC3-I and LC3-II. Quantifications of western blot for changes in the ratio of p-ULK1 (S317):ULK1 (E), p62 (F) and LC31:LC3II (G). All data shown are mean±SEM, n=3, *p<0.05, ** p<0.01, one-way ANOVA with Dunnett's multiple comparisons test.
FIG. 4. ULKTACs retain ULK1 agonist activity and subsequent induction of autophagy (A) Western blot of PANC-1 cells treated with ULKTACs±bafilomycin, probed for p-ULK1 (S317), ULK1, p62, b-Actin, LC31 and LC3II. Quantifications of (A) for the pULK1:ULK1 ratio (B) LC3I:LC3II ratio (C) and changes in p62 (D). (E) Representative images of PANC-1 cells stably expressing the mCherry-EGFP-LC3 tandem reporter treated with ULKTACs w/or w/o bafilomycin. Nuclei stained with Hoechst 33342, autophagosomes are shown in the EGFP channel and autolysosomes in the mCherry channel. Fold change in the number of autophagosome (F) and autolysosome (G) puncta. Data shown are mean±SEM, *p<0.05, ** p<0.01, *** p<0.001, one-way ANOVA, Dunnett's multiple comparisons test.
Cells were homogenised in protein lysis buffer consisting of 0.1 M Tris pH 8.0, 0.1 M NaCl, 5% glycerol, IGEPAL® CA-630 (#18896. Sigma-Aldrich) and 5 mM EDTA, 0.1 M N-ethyl maleimide (ThermoFisher, #23030) and protease inhibitor (Cell Signalling Technologies, #5871). Protein concentrations were determined using the BCA assay to ensure equal loading. […] The membranes were immunoblotted with primary antibodies, overnight at 4° C. ULK1 (D8H5) Rabbit mAb (#0854) [1:1000], Phospho-ULK1 (Ser 317) Rabbit antibody (#37762) [1:1000], LC3B Rabbit antibody (#2775) [1:1000], TOM20 (D8T4N) Rabbit mAb (#42406) [1:1000] and, Phospho-Ubiquitin (Ser 65) (E2J6T) Rabbit mAb (#62082) [1:500] were obtained from Cell Signalling Technologies. Recombinant Anti-Vinculin Rabbit antibody (EPR8185) (#ab129002) [1:5000] and Anti-Mitofusin2 mouse antibody (6A8) (#ab56889) [1:1000] were purchased from Abcam. […]
Membranes were then incubated with horseradish peroxidase (HRP)-conjugated secondary antibodies (Rabbit #7074 and Mouse #7076) purchased from Cell Signalling Technologies for 1 hour and the HRP signal was detected using EZ-ECL Enhanced Chemiluminescence Detection Kit for HRP (#20-500-500, Sartorius), and imaged with an Alliance Q9 Advanced (UVITec). […]

Compound	activation of ULK1 and autophagy (overall)	phosphorylation of ULK1 at Ser317
O=C(Nc1ccc(F)cc1F)[C@H](NC(=S)Nc1cc(C(F)(F)F)cc(C(F)(F)F)c1)c1ccccc1 [BL-918, reference compound]	potent activator of ULK1 and autophagy	induction of phosphorylation of ULK1 at Ser317
O=C(Nc1cc(C(F)(F)F)cc(C(F)(F)F)c1)N[C@@H](C(=O)Nc1ccc(F)cc1F)c1ccc(OCc2cn(CCOCCOCCNC(=O)C(=O)c3c(-c4ccccc4)[nH]c4ccccc34)nn2)cc1 [NZ-65, (R)-2-(3-(3,5-bis(trifluoromethyl)phenyl)ureido)-N-(2,4-difluorophenyl)-2-(4-((1-(2-(2-(2-(2-oxo-2-(2-phenyl-1H-indol-3-yl)acetamido)ethoxy)ethoxy)ethyl)-1H-1,2,3-triazol-4-yl)methoxy)phenyl) acetamide]		strong increase in phospho-Ser317 levels
O=C(Nc1cc(C(F)(F)F)cc(C(F)(F)F)c1)N[C@@H](C(=O)Nc1ccc(F)cc1F)c1ccc(OCc2cn(CCCCCCNC(=O)C(=O)c3c(-c4ccccc4)[nH]c4ccccc34)nn2)cc1 [NZ-66, (R)-2-(3-(3,5-bis(trifluoromethyl)phenyl)ureido)-N-(2,4-difluorophenyl)-2-(4-((1-(6-(2-oxo-2-(2-phenyl-1H-indol-3-yl)acetamido)hexyl)-1H-1,2,3-triazol-4-yl)methoxy)phenyl) acetamide]		strong increase in phospho-Ser317 levels
